Counter-ions that a name gives are not always drawn. Like-named read-outs stand apart in the source and are kept apart here.
Columns and labels:
[1] = test system: 3D primary human hepatocytes microtissues (IPHH_02); test: Seahorse XF Analyzer measurement of spare respiratory capacity (microtissue-specific respiration rate, MTSRR) after 48 h compound exposure; details: High: IC50_MTSRR<0.75×IC50_CV/CYT; Low: IC50_MTSRR<IC50_CV/CYT and ≥0.75×IC50_CV/CYT; No: IC50_MTSRR≥IC50_CV/CYT (CV/CYT by CellTiter-Glo)
Experimental: (§1) B. Coating of Seahorse Spheroid plates • 20 uL of Poly-D-Lysine (100 ug/mL diluted in cell culture grade water) were added to each well of the Seahorse Spheroid plate (Incubation for 20min @ RT) • After coating, the Seahorse Spheroid plate was washed with 200 uL of sterile water and wash was removed (Washing step repeated once) • Seahorse Spheroid plate has been air dried for a few minutes
(§2) D. Seahorse XF Analyzer Run • While cell incubation fill up the ports of the cartridge according to the Seahorse manufacturer's protocol • Setup groups and parameters for the measurement (basal: 7 cycles, oligomycin 2 uM: 6 cycles, FCCP 0.5 uM: 3 cycles, FCCP 1 uM: 3 cycles, Rot/AA 0.5 uM: 9 cycles) • Start the measurement
(§3) DILI classification: Drug-induced liver injury according to Gustafsson et al, 2014 (N=negative, P=positive). CMax=concentration of candidate compound used in Gustafsson et al, 2014; CTop=concentration of candidate compound used herein; IC50CV/Cyt determined by the CellTiter-Glo Luminescent Cell Viability Assay (Promega, Madison, US) as disclosed herein, IC50MTSRR determined as inhibition on spare respiratory capacity (SPARE), as disclosed herein; MOS: Margin of safety; High Mito-toxic risk: IC5O_MTSRR<0.75×IC5O_CV/CYT; Low Mito-toxic risk: IC5O_MTSRR<IC5O_CV/CYT and IC5O_MTSRR≥0.75×IC5O_CV/CYT; No Mito-toxic risk: IC5O_MTSRR≥IC5O_CV/CYT

[2] = categorized by Gustafsson et al; cited from earlier work
[3] = test system: 3D primary human hepatocytes microtissues (IPHH_02)
Experimental: as §1, §2, §3

For CN(C)C(=N)N=C(N)N [Metformin HCl], the Mitochondrial toxicity risk [1] is given as “low mitochondrial toxicity” and the DILI classification [2] is given as “not liver toxic”.
For O=c1[nH]c(=O)n([C@@H]2O[C@H](CO)[C@@H](O)[C@@H]2F)cc1I [Fialuridine], the Mitochondrial toxicity risk [3] is given as “not have specific mitochondrial toxicity” and the DILI classification [2] is given as “liver toxic”.
